Tested on: mouse model of renal fibrosis (UUO)
Test: Mouse model of renal fibrosis (unilateral ureteral obstruction, UUO)
Format: in vivo
Settings: for urea nitrogen level: model 17.56±0.48; for serum creatinine level: model 32.48±0.87; for urine protein level: model 888.5±264.8; for extent of renal fibrosis, pathological staining (H&E, Masson, Sirius red): FIG. 2, control compound 25 mg/kg, losartan 50 mg/kg; for body weight compared with the UUO model group / kidney weight compared with the UUO model group: gavage once daily 14 days, not statistically different (P>0.05)
Procedure: The therapeutic effect of the compounds of the present invention (as exemplified by Compound 1-1 obtained in Example 1) on renal fibrosis was determined using a mouse model of renal fibrosis. The method was as follows:
Grouping of animals: male C57BL/6J mice aged 8 weeks were given adaptive feeding for 3 days and grouped into a sham operation group, a sham operation-treatment group, a Unilateral ureteral obstruction (UUO) model group, a low-dose (10 mg/kg) treatment group, a medium-dose (25 mg/kg) treatment group, a high-dose (50 mg/kg) treatment group, a medium-dose (25 mg/kg) treatment group of indole analogue 3-[(1-methyl-1H-indole-2-carbonyl)amino]propionic acid disclosed in CN2019107285315, and a positive control group of losartan (50 mg/kg), with 10 animals in each group. Mice in the model and the treatment groups were anesthetized by intraperitoneal injection of 0.5% sodium pentobarbital at a dose of 0.1 mL/10 g. The mice were fixed on the operating table and cut open in layers from the right side of the mid-abdomen to locate the left kidney, and the ends of the ureter were ligated, while the ureter was cut off between the two ligations; the sham operation group was operated as described above and the ligations were not performed. Post-operative organs were repositioned, sutured, and sterilized with iodophor after suturing was completed. Immediately after operation, the drug was administered by gavage once daily for 14 days. Urine sample collection: animals were placed in separate metabolic cages by group on days 0, 5, 10 and 14 after modelling, without food or water, and urine samples were collected from each group of mice.
The protein levels in urine were determined using Coomassie brilliant blue (CBB) method by using urine protein quantitative test kit (Nanjing Jiancheng Bioengineering Institute). CBB working solution was prepared according to the kit instructions. 0.05 mL of each urine sample was mixed with 3 mL of CBB working solution, the mixture was left to stand for 5 min, and the absorbance value of each sample was determined at 595 nm. The protein levels in each group of urine samples were calculated according to the protein standardization formula: urine protein levels (mg/L)=(measured OD−blank OD)/(standard OD−blank OD)×563 mg/L.
Collection of serum sample: orbital blood from each mouse was collected in an EP tube, placed at 37° C. for 20 minutes, and centrifuged to obtain the upper layer of serum.
Collection of plasma sample: orbital blood from each mouse was collected in an anticoagulation tube, mixed well and stored at 4° C. for later use.
Determination of creatinine levels in urine and serum by the picric acid colorimetric method: creatinine levels in urine and serum were determined by using the creatinine test kit (Nanjing Jiancheng Bioengineering Institute). According to the kit instructions, 1.5 mL of urine sample or serum sample and 0.5 mL of picric acid solution, 0.5 mL of 0.5 mol/L sodium hydroxide solution were mixed, heated in water bath at 37° C. for 10 minutes. The absorbance value of each sample was determined using a UV spectrophotometer at a wavelength of 510 nm. Creatinine levels in samples of each group were calculated according to the formula: creatinine level (μmol/L) in serum or urine=(measured OD value−blank OD value)/(standard OD value−blank OD value)×50 μmol/L×(dilution ratio 201).
Determination of urea nitrogen level in plasma by diacetyl monoxime method: urea nitrogen level was determined was determined by using blood urea nitrogen (BUN) test kit (Nanjing Jiancheng Bioengineering Institute). According to the kit instructions, 0.05 mL of anticoagulated plasma samples were mixed with 1 mL of oxime solution and 1 mL of acid working solution, and the mixtures were placed in a boiling water bath for 15 min. A UV-visible spectrophotometer was used to determine the absorbance values of each tube at a wavelength of 520 nm. […]

| SMILES | creatinine level reduced compared with the model group (25 mg/kg gavage 14 days) [%] | urea nitrogen level reduced compared with the model group (25 mg/kg gavage 14 days) [%] | urine protein level reduced compared with the model group (25 mg/kg gavage 14 days) [%] | urea nitrogen level (25 mg/kg gavage 14 days) [mmol/L] | serum creatinine level (25 mg/kg gavage 14 days) [µmol/L] | urine protein level (25 mg/kg gavage 14 days) [mg/L] | extent of renal fibrosis, pathological staining (H&E, Masson, Sirius red) | body weight compared with the UUO model group | kidney weight compared with the UUO model group | other results |
| --- | --- | --- | --- | --- | --- | --- | --- | --- | --- | --- |
| Cn1c(C(=O)NCCC(=O)O)cc2ccccc21 [3-[(1-methyl-1H-indole-2-carbonyl)amino]propionic acid, reference compound] | 18.3 | 20.6 | 30.1 | 13.94 ± 0.42 | 26.52 ± 0.86 | 621 ± 81.3 | shows less improvement in fibrotic tissue proliferation and renal tubular lumen dilation | slight increase in body weight | slight decrease in kidney weight | – |
| CC(=O)OCCCNC(=O)c1c(C=O)c2ccccc2n1C [compound 1-1, propyl 3-[(3-formyl-1-methyl-1H-indole-2-carbonyl)amino]acetate] | 20.7 | 30.0 | 37.7 | 12.30 ± 0.33 | 25.76 ± 1.31 | 554 ± 143 | significantly attenuates tubular lumen dilatation and glomerular atrophy in a dose-dependent manner | slight increase in body weight | slight decrease in kidney weight | creatinine level reduced compared with the model group (10 mg/kg gavage 14 days): 17.2%; urea nitrogen level reduced compared with the model group (10 mg/kg gavage 14 days): 24.7%; urine protein level reduced compared with the model group (10 mg/kg gavage 14 days): 27.4%; urea nitrogen level (10 mg/kg gavage 14 days): 13.23 ± 0.62 mmol/L; serum creatinine level (10 mg/kg gavage 14 days): 26.88 ± 0.86 µmol/L; urine protein level (10 mg/kg gavage 14 days): 645 ± 165 mg/L; creatinine level reduced compared with the model group (50 mg/kg gavage 14 days): 27.6%; urea nitrogen level reduced compared with the model group (50 mg/kg gavage 14 days): 37.7%; urine protein level reduced compared with the model group (50 mg/kg gavage 14 days): 52.6%; urea nitrogen level (50 mg/kg gavage 14 days): 10.94 ± 0.42 mmol/L; serum creatinine level (50 mg/kg gavage 14 days): 23.52 ± 0.86 µmol/L; urine protein level (50 mg/kg gavage 14 days): 421 ± 82.3 mg/L |

Source: patent US12692232B2, “Indole carboxamide compound, preparation therefor and use thereof” (NANJING RUISHUNING MEDICAL TECHNOLOGY CO., LTD., priority 2021, dated 2026)
